Test results published in patent US20030165446A1, “Divalent manganese salts for reducing odour resulting from bacterial decomposition of human perspiration” (priority 2003, published 2003).

Assays:
[1] = tested on: natural sweat (human axillary sweat); details: 1 mg of active material per ml of sweat, i.e. 0.1%, incubated 18 h then 24 h at 37° C., with respect to control sweat without deodorant agent; for Mean % of reduction in the odor annoyance (mean over 18 h and 24 h): hedonic grade
Experimental: A test of inhibition of the evolution of odors was carried out on natural sweat.
The principle of this test consists in adding the deodorant agent to fresh sweat and then in carrying out an olfactory evaluation by a jury of experts after incubating for 18 hours and then 24 hours at 37° C.
Thus, the axillary sweat was taken from several human models in a sauna and was combined to produce a sample of sweat. In order to obtain the characteristic nauseating odor of sweat, this sample of sweat was incubated […]. […] The active substance was then introduced into each of the flasks to be tested.
Per 1 mg of active material per ml of sweat, i.e. 0.1%: […]

Corynebacterium xerosis = assay type: cell-based; details: dilutions in agar medium
Experimental: (§1) The microbiostatic activity of MnCl2 was determined in comparison with triclosan (deodorant active principle of the prior art) by the method of dilutions in agar medium.
(§2) One hundred μl of the ethanolic solution were added to 0.9 ml of agar culture heated beyond the melting point to 45° C. (medium chosen as a function of the nutrient requirements of the strain studied). After stirring with a Vortex device, successive dilutions in geometric progression in a ratio of 2 of the solution obtained were carried out using agar culture medium heated beyond the melting point to 45° C. One ml of each dilution was introduced into the wells of a microplate (Flacon [sic], 24 wells). Four μl of microbial suspension were deposited at the surface of the agar medium.
(§3) Two control wells were also prepared: 100 μl H2O+0.9 ml of culture medium (growth control), 100 μl ethanol+0.9 ml of culture medium.
(§4) After incubating under conditions (temperature, atmosphere and duration) dependent on the strain studied, the Minimum Inhibitory Concentration (MIC) is given by the lowest concentration of product which inhibits microbial growth.
(§5) Results: expressed in % w/v

[2] = tested on: Staphylococcus epidermidis; assay type: cell-based; details: dilutions in agar medium
Experimental: as §1, §2, §3, §4, §5

[3] = background statement; cited from earlier work

Row | Molecule | Mean % of reduction in the strength of the odor (mean over 18 h and 24 h) [1] [%] | Mean % of reduction in the odor annoyance (mean over 18 h and 24 h) [1] [%] | Minimum Inhibitory Concentration (MIC) (Corynebacterium xerosis) | Minimum Inhibitory Concentration (MIC) [2] | solubility in water [3]
1 | Oc1cc(Cl)ccc1Oc1ccc(Cl)cc1Cl [Triclosan, 2,4,4′-trichloro-2′-hydroxydiphenyl ether] | −39 | −27 | 4 × 10^−6 % w/v | 3 × 10^−8 % w/v | insoluble
2 | manganese chloride [MnCl2] | −43 | −31 | 0.23 % w/v | 0.23 % w/v | 
